Reference: PubChem BioAssay AID1259407 (Chemical Carcinogenesis Research Information System (CCRIS), 2018)
Calls of active or inactive are those of the source. How the calls were made is not given here.

System: CCRIS mutagenicity, Ames/micronucleus/aberration tests
Test: CCRIS mutagenicity studies
[1] = Test System: AMES SALMONELLA TYPHIMURIUM, Strain/Indicator: TA98, Metabolic Activation: NONE, Method: STANDARD PLATE
[2] = Test System: AMES SALMONELLA TYPHIMURIUM, Strain/Indicator: TA98, Metabolic Activation: RAT, LIVER, S-9, AROCLOR 1254, Method: STANDARD PLATE
[3] = Test System: AMES SALMONELLA TYPHIMURIUM, Strain/Indicator: TA100, Metabolic Activation: NONE, Method: STANDARD PLATE
[4] = Test System: AMES SALMONELLA TYPHIMURIUM, Strain/Indicator: TA100, Metabolic Activation: RAT, LIVER, S-9, AROCLOR 1254, Method: STANDARD PLATE
[5] = Test System: AMES SALMONELLA TYPHIMURIUM, Strain/Indicator: TA102, Metabolic Activation: NONE, Method: STANDARD PLATE
[6] = Test System: AMES SALMONELLA TYPHIMURIUM, Strain/Indicator: TA102, Metabolic Activation: RAT, LIVER, S-9, AROCLOR 1254, Method: STANDARD PLATE
[7] = Test System: MOUSE LYMPHOMA, Strain/Indicator: L5178Y (TK+/TK-), Metabolic Activation: NONE, Method: SUSPENSION/PLATE

Compound: Cc1nc2c(c3[nH]c4ccccc4c13)C(=O)C(N1CCN(C)CC1)=CC2=O
- mutagenic call (Test System: AMES SALMONELLA TYPHIMURIUM, Strain/Indicator: TA97, Metabolic Activation: NONE, Method: STANDARD PLATE): inactive; negative
- mutagenic call (Test System: AMES SALMONELLA TYPHIMURIUM, Strain/Indicator: TA97, Metabolic Activation: RAT, LIVER, S-9, AROCLOR 1254, Method: STANDARD PLATE): inactive; negative
- mutagenic call [1]: inactive; negative
- mutagenic call [2]: inactive; negative
- mutagenic call [3]: active; positive
- mutagenic call [4]: inactive; negative
- mutagenic call [5]: inactive; negative
- mutagenic call [6]: inactive; negative

Compound: c1ccc2c(c1)-c1ccc3ccccc3c1C1NC21 (stereo not drawn)
- mutagenic call (Test System: AMES SALMONELLA TYPHIMURIUM, Strain/Indicator: TA98, Metabolic Activation: NONE, Method: PREINCUBATION (KCL-CONTAINING OR KCL-FREE MEDIA)): active; positive
- mutagenic call (Test System: AMES SALMONELLA TYPHIMURIUM, Strain/Indicator: TA100, Metabolic Activation: NONE, Method: PREINCUBATION (KCL-CONTAINING MEDIUM)): active; positive
- mutagenic call (Test System: AMES SALMONELLA TYPHIMURIUM, Strain/Indicator: TA100, Metabolic Activation: NONE, Method: PREINCUBATION (KCL-FREE MEDIUM)): active; positive

Compound: CCN(CC)CCCNC(=O)N/N=C/c1ccc([N+](=O)[O-])o1
- mutagenic call (Test System: E. COLI, Strain/Indicator: WP2 UVRA, Metabolic Activation: NONE, Method: SPOT): active; positive

Compound: CNc1ccc(NCCO)c2c1C(=O)c1ccccc1C2=O
- mutagenic call [1]: inactive; negative
- mutagenic call [2]: active; positive
- mutagenic call [3]: inactive; negative
- mutagenic call [4]: inactive; negative
- mutagenic call [5]: inactive; negative
- mutagenic call [6]: active; positive
- mutagenic call (Test System: AMES SALMONELLA TYPHIMURIUM, Strain/Indicator: TA104, Metabolic Activation: NONE, Method: STANDARD PLATE): inactive; negative
- mutagenic call (Test System: AMES SALMONELLA TYPHIMURIUM, Strain/Indicator: TA1537, Metabolic Activation: NONE, Method: STANDARD PLATE): inactive; negative
- mutagenic call (Test System: AMES SALMONELLA TYPHIMURIUM, Strain/Indicator: TA1537, Metabolic Activation: RAT, LIVER, S-9, AROCLOR 1254, Method: STANDARD PLATE): active; positive
- mutagenic call (Test System: AMES SALMONELLA TYPHIMURIUM, Strain/Indicator: TA1538, Metabolic Activation: NONE, Method: STANDARD PLATE): inactive; negative
- mutagenic call (Test System: MOUSE LYMPHOMA, Strain/Indicator: L5178Y (TK+/TK-), Metabolic Activation: NONE, Method: SUSPENSION PLATE): active; positive
- mutagenic call [7]: active; positive
- mutagenic call (Test System: MOUSE LYMPHOMA, Strain/Indicator: L5178Y (TK+/TK-), Metabolic Activation: RAT, LIVER, S-9, AROCLOR 1254, Method: SUSPENSION PLATE): active; positive

Compound: COC(C)=O
- mutagenic call (Test System: AMES SALMONELLA TYPHIMURIUM, Strain/Indicator: TA97, Metabolic Activation: HAMSTER, LIVER, S-9, AROCLOR 1254 (10 OR 30%), Method: PREINCUBATION): inactive; negative
- mutagenic call (Test System: AMES SALMONELLA TYPHIMURIUM, Strain/Indicator: TA97, Metabolic Activation: NONE, Method: PREINCUBATION): inactive; negative
- mutagenic call (Test System: AMES SALMONELLA TYPHIMURIUM, Strain/Indicator: TA97, Metabolic Activation: RAT, LIVER, S-9, AROCLOR 1254 (10 OR 30%), Method: PREINCUBATION): inactive; negative
- mutagenic call (Test System: AMES SALMONELLA TYPHIMURIUM, Strain/Indicator: TA98, Metabolic Activation: HAMSTER, LIVER, S-9, AROCLOR 1254 (10 OR 30%), Method: PREINCUBATION): inactive; negative
- mutagenic call (Test System: AMES SALMONELLA TYPHIMURIUM, Strain/Indicator: TA98, Metabolic Activation: NONE, Method: PREINCUBATION): inactive; negative
- mutagenic call (Test System: AMES SALMONELLA TYPHIMURIUM, Strain/Indicator: TA98, Metabolic Activation: RAT, LIVER, S-9, AROCLOR 1254 (10 OR 30%), Method: PREINCUBATION): inactive; negative
- mutagenic call (Test System: AMES SALMONELLA TYPHIMURIUM, Strain/Indicator: TA100, Metabolic Activation: HAMSTER, LIVER, S-9, AROCLOR 1254 (10 OR 30%), Method: PREINCUBATION): inactive; negative
- mutagenic call (Test System: AMES SALMONELLA TYPHIMURIUM, Strain/Indicator: TA100, Metabolic Activation: NONE, Method: PREINCUBATION): inactive; negative
- mutagenic call (Test System: AMES SALMONELLA TYPHIMURIUM, Strain/Indicator: TA100, Metabolic Activation: RAT, LIVER, S-9, AROCLOR 1254 (10 OR 30%), Method: PREINCUBATION): inactive; negative
- mutagenic call (Test System: AMES SALMONELLA TYPHIMURIUM, Strain/Indicator: TA1535, Metabolic Activation: HAMSTER, LIVER, S-9, AROCLOR 1254 (10 OR 30%), Method: PREINCUBATION): inactive; negative
- mutagenic call (Test System: AMES SALMONELLA TYPHIMURIUM, Strain/Indicator: TA1535, Metabolic Activation: NONE, Method: PREINCUBATION): inactive; negative
- mutagenic call (Test System: AMES SALMONELLA TYPHIMURIUM, Strain/Indicator: TA1535, Metabolic Activation: RAT, LIVER, S-9, AROCLOR 1254 (10 OR 30%), Method: PREINCUBATION): inactive; negative
- mutagenic call (Test System: AMES SALMONELLA TYPHIMURIUM, Strain/Indicator: TA1537, Metabolic Activation: HAMSTER, LIVER, S-9, AROCLOR 1254 (30%), Method: PREINCUBATION): inactive; negative
- mutagenic call (Test System: AMES SALMONELLA TYPHIMURIUM, Strain/Indicator: TA1537, Metabolic Activation: NONE, Method: PREINCUBATION): inactive; negative
- mutagenic call (Test System: AMES SALMONELLA TYPHIMURIUM, Strain/Indicator: TA1537, Metabolic Activation: RAT, LIVER, S-9, AROCLOR 1254 (30%), Method: PREINCUBATION): inactive; negative

Compound: CCC1C(=O)O[C@@H]2CCN(C)C/C=C(/COC(=O)[C@](C)(O)[C@H](C)[C@@H]1O)C2=O (stereo partly drawn)
- mutagenic call (Test System: UDS RAT HEPATOCYTES, Strain/Indicator: THY INCORP, Metabolic Activation: NONE, Method: AUTORADIOGRAPHY): active; positive

Compound: [N-]=[N+]=NC[C@@H](CO)Cc1ccccc1
- mutagenic call (Test System: AMES SALMONELLA TYPHIMURIUM, Strain/Indicator: TA100, Metabolic Activation: RAT, LIVER, S-9, PCB, Method: PREINCUBATION): active; positive

Compound: O=C1C=Cc2ccc3c(ccc4ccccc43)c2C1=O
- mutagenic call [1]: inactive; negative
- mutagenic call [4]: active; positive

Compound: O=[As]O
- mutagenic call (End Point: IN VITRO CHROMOSOMAL ABERRATIONS, Test System: CHINESE HAMSTER OVARY (CHO), Metabolic Activation: NONE): active; positive (structural changes: breaks, exchanges, endoreduplication)
- mutagenic call (End Point: IN VITRO CHROMOSOMAL ABERRATIONS, Test System: HUMAN FIBROBLAST (HFW), Metabolic Activation: NONE): active; positive (structural changes: breaks, fusion)
- mutagenic call (End Point: IN VITRO CHROMOSOMAL ABERRATIONS, Test System: HUMAN LYMPHOCYTES, Metabolic Activation: NONE, Method: FISH): active; positive (hyperdiploidy)
- mutagenic call (End Point: IN VITRO CHROMOSOMAL ABERRATIONS, Test System: V79-C13 CHINESE HAMSTER CELLS, Metabolic Activation: NONE): inactive; negative
- mutagenic call (End Point: IN VITRO MICRONUCLEUS, Test System: CHINESE HAMSTER OVARY CELLS, Metabolic Activation: NONE): active; positive
- mutagenic call (End Point: IN VITRO MICRONUCLEUS, Test System: CHINESE HAMSTER V-79, Metabolic Activation: NONE): active; positive
- mutagenic call (End Point: IN VITRO MICRONUCLEUS, Test System: HUMAN FIBROBLASTS VH25 CELLS, Metabolic Activation: NONE): active; positive
- mutagenic call (End Point: IN VITRO MICRONUCLEUS, Test System: V79-C13 CHINESE HAMSTER CELLS, Metabolic Activation: NONE): active; positive
- mutagenic call (End Point: In vitro chromosomal aberrations, Test System: Human peripheral lymphocytes, Metabolic Activation: None): active; positive
- mutagenic call (End Point: In vitro micronucleus, Test System: Human peripheral lymphocytes, Metabolic Activation: None): active; positive
- mutagenic call (End Point: In vivo micronucleus, Test System: Bone marrow polychromatic erythrocytes, Species: Mouse, Strain/Sex: C57BL/6J/Han/Male, Route: Oral): active; positive
- mutagenic call [5]: inactive; negative
- mutagenic call [7]: active; positive
- mutagenic call (Test System: Mouse lymphoma, Strain/Indicator: L5178Y (TK+/TK-), Metabolic Activation: None, Method: Microwell): active; positive (statistically significant at 2 highest doses)
